Measured values as given in article PMC6339703, “Visualizing the Distribution of Matrix Metalloproteinases in Ischemic Brain Using In Vivo ^19F-Magnetic Resonance Spectroscopic Imaging” (Contrast Media & Molecular Imaging, 2019).

What was measured:
MMP9 = MMP9 (Homo sapiens, UniProt P14780); test: in vitro MMP inhibition assay (Eurofins Panlabs); format: biochemical
MMP2 = target: T1, MMP2 (Homo sapiens, UniProt P08253); test: in vitro MMP inhibition assay (Eurofins Panlabs); format: biochemical
T1 sequence (P08253 110-660): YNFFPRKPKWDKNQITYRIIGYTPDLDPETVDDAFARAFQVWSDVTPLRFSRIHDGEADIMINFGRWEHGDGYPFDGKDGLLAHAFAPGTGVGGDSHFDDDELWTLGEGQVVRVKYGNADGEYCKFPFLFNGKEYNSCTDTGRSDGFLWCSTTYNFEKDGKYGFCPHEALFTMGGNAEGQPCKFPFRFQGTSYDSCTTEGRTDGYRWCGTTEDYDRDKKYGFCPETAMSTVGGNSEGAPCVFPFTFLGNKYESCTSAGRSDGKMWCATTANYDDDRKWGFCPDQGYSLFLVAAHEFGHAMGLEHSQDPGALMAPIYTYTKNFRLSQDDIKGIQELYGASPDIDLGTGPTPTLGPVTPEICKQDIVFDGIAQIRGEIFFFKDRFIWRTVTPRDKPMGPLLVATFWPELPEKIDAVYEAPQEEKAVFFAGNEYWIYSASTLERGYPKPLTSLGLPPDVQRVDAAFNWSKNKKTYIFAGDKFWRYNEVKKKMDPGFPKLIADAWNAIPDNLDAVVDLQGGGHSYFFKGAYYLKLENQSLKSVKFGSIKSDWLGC

Chain of MMP9 (P14780 107-707): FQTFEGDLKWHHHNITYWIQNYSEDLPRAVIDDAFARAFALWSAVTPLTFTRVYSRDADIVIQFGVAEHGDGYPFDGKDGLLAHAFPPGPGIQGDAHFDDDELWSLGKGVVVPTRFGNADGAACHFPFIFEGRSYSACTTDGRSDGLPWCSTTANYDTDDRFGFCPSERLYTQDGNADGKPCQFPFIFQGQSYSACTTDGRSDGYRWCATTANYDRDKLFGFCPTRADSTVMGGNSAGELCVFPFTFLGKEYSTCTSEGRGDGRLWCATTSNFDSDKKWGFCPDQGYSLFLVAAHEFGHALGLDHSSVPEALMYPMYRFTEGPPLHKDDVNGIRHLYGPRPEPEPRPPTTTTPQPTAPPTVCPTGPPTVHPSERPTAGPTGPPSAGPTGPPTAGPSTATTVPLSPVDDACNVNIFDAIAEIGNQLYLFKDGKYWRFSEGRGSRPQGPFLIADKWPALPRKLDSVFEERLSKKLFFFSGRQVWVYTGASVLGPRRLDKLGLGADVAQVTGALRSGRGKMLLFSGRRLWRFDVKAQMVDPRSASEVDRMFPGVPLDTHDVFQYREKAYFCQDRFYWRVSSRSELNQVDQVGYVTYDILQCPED

in vitro MMP inhibition assay (Eurofins Panlabs) (MMP9): completely inhibit
in vitro MMP inhibition assay (Eurofins Panlabs) (MMP2): completely inhibit
Compound: CNC(=O)C(Cc1c[nH]c2ccc(F)cc12)NC(=O)C(CC(=O)NO)CC(C)C (mixture of isomers) [TGF-019]
